Assay results from patent US20220400680A1, “USE OF ACYLCYANAMIDES OR SALTS THEREOF FOR REGULATING PLANT GROWTH” (Alzchem Trostberg GmbH, priority 2019, published 2022).

How the values were obtained:
[1] = tested on: Table apple, type Zabergäu-Renette (C2); test: Greenhouse test, cut apple branches C2 dipped in test solution, bud development stage; type: in vivo, Malus domestica; set-up: key to Bud development stage, apple branches C2: Stage 0: Buds unchanged; Stage 1: Buds slightly swollen, first green tips visible; Stage 2: strongly swollen, green buds; Stage 3: Buds before breaking open, leaf or flower root already visible; Stage 4: Flower buds fully developed, but still closed, white petals already visible. In the case of the grapevine, stage 4 was the unfolding of the first leaves; Stage 5: Flowers fully open or, in the case of grapevine, unfolding of the flower roots (“Gescheine”) on the fully leafed sprouts; conditions: for Dormancy-breaking effect according to the definition, apple C2: stage 4 reached or exceeded after 36 days vs negative control
Outline: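 Cut branches held in water jars in a greenhouse at about 22° C. under natural light after dipping in aqueous test solution: 0.15 mol substance (0.075 mol for bis-cyanamides) plus 0.15 g BreakThru OE-446 per 500 g. Bud development scored on a stage scale from closed buds to fully open flowers.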

[2] = tested on: Grape, type Pinot Noir (C4); test: Greenhouse test, cut wine sprouts C4 dipped in test solution, bud development stage; type: in vivo, Vitis vinifera subsp. vinifera; set-up: key to Bud development stage, wine sprouts C4: Stage 0: Buds unchanged; Stage 1: Buds slightly swollen, first green tips visible; Stage 2: strongly swollen, green buds; Stage 3: Buds before breaking open, leaf or flower root already visible; Stage 4: Flower buds fully developed, but still closed, white petals already visible. In the case of the grapevine, stage 4 was the unfolding of the first leaves; Stage 5: Flowers fully open or, in the case of grapevine, unfolding of the flower roots (“Gescheine”) on the fully leafed sprouts; conditions: for Dormancy-breaking effect according to the definition, wine C4: stage 4 reached or exceeded after 36 days vs negative control
Outline: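 Cut Pinot Noir grapevine sprouts were dipped in aqueous test solution (0.15 mol test substance, or 0.075 mol for bis-cyanamides, plus 0.15 g BreakThru OE-446 per 500 g total) and kept in water jars at about 22° C under natural light. Bud development was scored on a staged scale from closed buds to fully open flowers.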

[3] = tested on: Table apple, type Boiken apple (C1); test: Greenhouse test, cut apple branches C1 dipped in test solution, bud development stage; type: in vivo, Malus domestica; set-up: key to Bud development stage, apple branches C1: Stage 0: Buds unchanged; Stage 1: Buds slightly swollen, first green tips visible; Stage 2: strongly swollen, green buds; Stage 3: Buds before breaking open, leaf or flower root already visible; Stage 4: Flower buds fully developed, but still closed, white petals already visible. In the case of the grapevine, stage 4 was the unfolding of the first leaves; Stage 5: Flowers fully open or, in the case of grapevine, unfolding of the flower roots (“Gescheine”) on the fully leafed sprouts; conditions: for Good to very good dormancy-breaking effect, apple C1: stage 4 reached or exceeded after 27 days vs negative control; for Dormancy-breaking effect according to the definition, apple C1: stage 4 reached or exceeded after 36 days vs negative control
Outline: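 Cut Boiken apple branches kept in water jars in a greenhouse at about 22 °C under natural light and dipped in test solution. Solutions contained 0.15 mol test substance (0.075 mol for bis-cyanamides) plus 0.15 g BreakThru OE-446 per 500 g water. Bud development scored on a stage scale up to full flowering.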

[4] = tested on: Table cherry, type Burlat (C3); test: Greenhouse test, cut cherry branches C3 dipped in test solution, bud development stage; type: in vivo, Prunus avium; set-up: key to Bud development stage, cherry branches C3: Stage 0: Buds unchanged; Stage 1: Buds slightly swollen, first green tips visible; Stage 2: strongly swollen, green buds; Stage 3: Buds before breaking open, leaf or flower root already visible; Stage 4: Flower buds fully developed, but still closed, white petals already visible. In the case of the grapevine, stage 4 was the unfolding of the first leaves; Stage 5: Flowers fully open or, in the case of grapevine, unfolding of the flower roots (“Gescheine”) on the fully leafed sprouts
Outline: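 Cut branches kept in water jars in a greenhouse at about 22° C. under natural light after dipping in aqueous solution of 0.15 mol test substance (0.075 mol for bis-cyanamides) plus 0.15 g BreakThru OE-446 per 500 g. Bud development scored on a stage scale from closed buds to fully open flowers.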

[5] = T1 (14 d), 0.15 mol (A-14, A-15: 0.075 mol) per 500 g solution
[6] = stage 4 reached or exceeded after 27 days vs negative control

Row | SMILES | Bud development stage, apple branches C2 [1, 5] | Bud development stage, apple branches C2 ([1]; T2 (16 d)) | Bud development stage, apple branches C2 ([1]; T3 (21 d)) | Bud development stage, apple branches C2 ([1]; T4 (27 d)) | Bud development stage, apple branches C2 ([1]; T5 (36 d)) | Bud development stage, apple branches C2 ([1]; T6 (56 d)) | Bud development stage, wine sprouts C4 [2, 5] | Bud development stage, wine sprouts C4 ([2]; T2 (16 d)) | Bud development stage, wine sprouts C4 ([2]; T3 (21 d)) | Bud development stage, wine sprouts C4 ([2]; T4 (27 d)) | Bud development stage, wine sprouts C4 ([2]; T5 (36 d)) | Bud development stage, wine sprouts C4 ([2]; T6 (56 d)) | Bud development stage, apple branches C1 [3, 5] | Bud development stage, apple branches C1 ([3]; T2 (16 d)) | Bud development stage, apple branches C1 ([3]; T3 (21 d)) | Bud development stage, apple branches C1 ([3]; T4 (27 d)) | Bud development stage, apple branches C1 ([3]; T5 (36 d)) | Bud development stage, apple branches C1 ([3]; T6 (56 d)) | Bud development stage, cherry branches C3 [4, 5] | Bud development stage, cherry branches C3 ([4]; T2 (16 d)) | other results
1 | CCC(=O)NC#N.[Na] [Example A-5, Sodium propionyl cyanamide] | 0 | 0 | 0 | 1 | 3 | 4 | 0 | 0 | 0 | 1 | 3 | 5 | 2 | 2 | 4 | 5 | 5 | 5 | 1 | 2 | melting point: 143 °C (dec.); Good to very good dormancy-breaking effect, apple C1 [3]: good to very good dormancy-breaking effect; Dormancy-breaking effect according to the definition, apple C1 [3]: dormancy-breaking effect; Bud development stage, cherry branches C3 ([4]; T3 (21 d)): 4; Bud development stage, cherry branches C3 ([4]; T4 (27 d)): 4; Bud development stage, cherry branches C3 ([4]; T5 (36 d)): 4; Bud development stage, cherry branches C3 ([4]; T6 (56 d)): 5; Good to very good dormancy-breaking effect, cherry C3 ([4]; stage 4 reached or exceeded after 21 days vs negative control): good to very good dormancy-breaking effect; Dormancy-breaking effect according to the definition, cherry C3 [4, 6]: dormancy-breaking effect
2 | Cc1ccc(C(=O)NC#N)cc1.[Na] [Example A-13, Sodium-4-methyl-benzoyl-cyanamide] | 0 | 0 | 1 | 3 | 3 | 5 | 0 | 0 | 0 | 1 | 3 | 5 | 0 | 0 | 0 | 1 | 4 | 4 | 0 | 0 | melting point: 340 °C (dec.); Dormancy-breaking effect according to the definition, apple C1 [3]: dormancy-breaking effect; Bud development stage, cherry branches C3 ([4]; T3 (21 d)): 0; Bud development stage, cherry branches C3 ([4]; T4 (27 d)): 1; Bud development stage, cherry branches C3 ([4]; T5 (36 d)): 2; Bud development stage, cherry branches C3 ([4]; T6 (56 d)): 5
3 | CC(C)C(=O)NC#N.[Na] [Example A-7, Sodium isobutyryl cyanamide] | 0 | 0 | 1 | 1 | 5 | 5 | 0 | 0 | 0 | 2 | 5 | 5 | 2 | 3 | 4 | 5 | 5 | 5 | 0 | 0 | Dormancy-breaking effect according to the definition, apple C2 [1]: dormancy-breaking effect; melting point: 127 to 133 °C; Dormancy-breaking effect according to the definition, wine C4 [2]: dormancy-breaking effect; Good to very good dormancy-breaking effect, apple C1 [3]: good to very good dormancy-breaking effect; Dormancy-breaking effect according to the definition, apple C1 [3]: dormancy-breaking effect; Bud development stage, cherry branches C3 ([4]; T3 (21 d)): 1; Bud development stage, cherry branches C3 ([4]; T4 (27 d)): 2; Bud development stage, cherry branches C3 ([4]; T5 (36 d)): 4; Bud development stage, cherry branches C3 ([4]; T6 (56 d)): 5
4 | COC(=O)NC#N.[Na] [Example A-3, Sodium methoxy carbonyl cyanamide] | 0 | 0 | 0 | 2 | 4 | 4 | 0 | 0 | 0 | 1 | 5 | 5 | 1 | 1 | 2 | 3 | 4 | 5 | 0 | 0 | Dormancy-breaking effect according to the definition, apple C2 [1]: dormancy-breaking effect; Dormancy-breaking effect according to the definition, wine C4 [2]: dormancy-breaking effect; Dormancy-breaking effect according to the definition, apple C1 [3]: dormancy-breaking effect; Bud development stage, cherry branches C3 ([4]; T3 (21 d)): 0; Bud development stage, cherry branches C3 ([4]; T4 (27 d)): 1; Bud development stage, cherry branches C3 ([4]; T5 (36 d)): 3; Bud development stage, cherry branches C3 ([4]; T6 (56 d)): 5
5 | N#CNC(=O)CCCCC(=O)NC#N.[Na].[Na] [Example A-15, Disodium-(5-(cyano-amidocarbonyl)-pentanoyl-cyanamide)] | 0 | 0 | 1 | 5 | 5 | 5 | 0 | 0 | 0 | 1 | 4 | 5 | 0 | 0 | 1 | 2 | 3 | 4 | 0 | 1 | Good to very good dormancy-breaking effect, apple C2 [1, 6]: good to very good dormancy-breaking effect; Dormancy-breaking effect according to the definition, apple C2 [1]: dormancy-breaking effect; Dormancy-breaking effect according to the definition, wine C4 [2]: dormancy-breaking effect; Bud development stage, cherry branches C3 ([4]; T3 (21 d)): 1; Bud development stage, cherry branches C3 ([4]; T4 (27 d)): 1; Bud development stage, cherry branches C3 ([4]; T5 (36 d)): 2; Bud development stage, cherry branches C3 ([4]; T6 (56 d)): 4
